Laboratory results: ChEMBL document CHEMBL4680359, “1-Pyrazolyl-5,6-Disubstituted Indazole Derivatives as LRRK2 Inhibitors for Treating Parkinson's Disease” (ACS Med Chem Lett, 2021)

These compounds were tested against Leucine-rich repeat serine/threonine-protein kinase 2 (Homo sapiens, UniProt Q5S007, G2019S) (assay: Inhibition of GST-tagged truncated human LRRK2 G2019S mutant using fluorescein labeled LRRKtide peptide as substrate preincubated for 15 mins followed by substrate addition measured after 90 mins in presence of ATP at Km concentration by TR-FRET Lanthascreen assay).
Sequence of Leucine-rich repeat serine/threonine-protein kinase 2 (Q5S007 whole entry G2019S, the tested form may be a part): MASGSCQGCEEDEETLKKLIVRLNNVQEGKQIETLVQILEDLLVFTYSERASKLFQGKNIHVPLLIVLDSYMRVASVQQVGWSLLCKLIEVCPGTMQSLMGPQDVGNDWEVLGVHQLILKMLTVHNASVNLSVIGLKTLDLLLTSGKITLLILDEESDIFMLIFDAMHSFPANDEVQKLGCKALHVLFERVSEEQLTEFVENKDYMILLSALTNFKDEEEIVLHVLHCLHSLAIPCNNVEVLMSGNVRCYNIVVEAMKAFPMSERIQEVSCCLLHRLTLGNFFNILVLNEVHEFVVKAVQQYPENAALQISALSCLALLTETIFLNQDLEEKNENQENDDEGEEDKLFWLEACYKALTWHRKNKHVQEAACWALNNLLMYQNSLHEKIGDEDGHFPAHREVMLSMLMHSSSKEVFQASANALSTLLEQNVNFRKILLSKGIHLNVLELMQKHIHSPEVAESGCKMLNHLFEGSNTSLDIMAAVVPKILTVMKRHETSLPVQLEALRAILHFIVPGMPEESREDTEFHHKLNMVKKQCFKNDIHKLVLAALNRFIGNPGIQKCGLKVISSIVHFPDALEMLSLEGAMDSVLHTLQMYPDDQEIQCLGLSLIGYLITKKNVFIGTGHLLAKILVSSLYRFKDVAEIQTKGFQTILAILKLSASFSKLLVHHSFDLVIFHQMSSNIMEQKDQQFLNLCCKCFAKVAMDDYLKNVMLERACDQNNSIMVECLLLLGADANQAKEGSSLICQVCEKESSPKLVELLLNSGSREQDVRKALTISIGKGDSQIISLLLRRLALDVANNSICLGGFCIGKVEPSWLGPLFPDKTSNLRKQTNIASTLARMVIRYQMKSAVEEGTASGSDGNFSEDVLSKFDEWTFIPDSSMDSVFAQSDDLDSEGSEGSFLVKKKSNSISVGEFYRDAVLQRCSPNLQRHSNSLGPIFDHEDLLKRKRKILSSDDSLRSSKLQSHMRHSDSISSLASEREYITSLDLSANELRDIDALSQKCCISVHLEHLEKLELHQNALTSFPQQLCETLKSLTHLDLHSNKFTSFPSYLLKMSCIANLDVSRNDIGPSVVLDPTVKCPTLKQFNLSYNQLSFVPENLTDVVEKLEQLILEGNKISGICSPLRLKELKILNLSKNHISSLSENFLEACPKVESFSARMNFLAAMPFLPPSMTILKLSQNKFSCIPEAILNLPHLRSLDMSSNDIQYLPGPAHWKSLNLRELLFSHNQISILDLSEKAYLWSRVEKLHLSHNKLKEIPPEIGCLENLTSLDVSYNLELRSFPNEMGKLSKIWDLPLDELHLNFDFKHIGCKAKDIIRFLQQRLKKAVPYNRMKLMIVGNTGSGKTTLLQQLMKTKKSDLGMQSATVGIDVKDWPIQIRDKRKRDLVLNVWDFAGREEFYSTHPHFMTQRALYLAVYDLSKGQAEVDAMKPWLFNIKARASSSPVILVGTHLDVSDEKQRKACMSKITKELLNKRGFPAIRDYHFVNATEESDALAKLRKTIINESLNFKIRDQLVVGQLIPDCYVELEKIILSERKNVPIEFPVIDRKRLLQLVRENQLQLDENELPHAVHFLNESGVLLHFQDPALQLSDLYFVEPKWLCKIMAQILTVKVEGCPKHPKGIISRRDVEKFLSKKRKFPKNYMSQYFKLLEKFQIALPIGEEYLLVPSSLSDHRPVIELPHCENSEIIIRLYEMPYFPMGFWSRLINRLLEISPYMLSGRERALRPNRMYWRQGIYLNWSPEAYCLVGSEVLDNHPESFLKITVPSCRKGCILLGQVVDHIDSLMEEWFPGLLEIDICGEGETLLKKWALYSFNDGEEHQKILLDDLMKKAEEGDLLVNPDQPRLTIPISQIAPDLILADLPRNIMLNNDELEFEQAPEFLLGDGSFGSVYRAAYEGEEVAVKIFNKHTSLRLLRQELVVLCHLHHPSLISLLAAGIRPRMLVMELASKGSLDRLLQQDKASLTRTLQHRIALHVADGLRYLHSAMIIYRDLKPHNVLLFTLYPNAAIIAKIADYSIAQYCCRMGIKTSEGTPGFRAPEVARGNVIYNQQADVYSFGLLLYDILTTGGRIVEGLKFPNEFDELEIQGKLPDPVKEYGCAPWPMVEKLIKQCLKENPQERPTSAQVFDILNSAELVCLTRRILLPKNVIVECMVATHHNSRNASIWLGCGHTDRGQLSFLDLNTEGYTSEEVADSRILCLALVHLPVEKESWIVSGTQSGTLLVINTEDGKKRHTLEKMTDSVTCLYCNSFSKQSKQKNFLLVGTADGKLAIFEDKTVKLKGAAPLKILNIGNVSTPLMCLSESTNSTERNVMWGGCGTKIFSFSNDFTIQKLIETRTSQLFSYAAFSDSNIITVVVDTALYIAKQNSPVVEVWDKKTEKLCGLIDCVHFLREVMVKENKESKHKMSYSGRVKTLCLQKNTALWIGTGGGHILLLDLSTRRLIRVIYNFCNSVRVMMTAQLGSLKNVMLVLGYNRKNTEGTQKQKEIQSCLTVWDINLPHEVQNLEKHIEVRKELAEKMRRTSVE
For `OC1(c2cncs2)CCN(c2cc3c(cnn3-c3cnn(C4CC4)c3)cc2Cl)CC1`, the IC50 was 97.5 nM.
`[2H]C([2H])([2H])OCC12CC(n3cc(-n4ncc5cc(Cl)c(N6CCN([C@]7(C)COC[C@@H]7O)CC6)cc54)cn3)(C1)C2` showed an IC50 of 157 nM.
Work on `CO[C@H]1COC[C@H]1N1CCN(c2cc3c(cnn3-c3cnn(C45CC(C4)C5)c3)cc2Cl)CC1` yielded an IC50 of 104 nM.
Compound `COCC12CC(n3cc(-n4ncc5cc(Cl)c(N6CCN([C@]7(C)COC[C@@H]7O)CC6)cc54)cn3)(C1)C2` has an IC50 of less than 80.4 nM.
`C[C@@]1(N2CCN(c3cc4c(cnn4-c4cnn(C56CC(C5)C6)c4)cc3Cl)CC2)CC[C@H]1O` showed an IC50 of 154 nM.
`Cc1cc2cnn(-c3cnn(C45CC(C4)C5)c3)c2cc1N1CCN([C@@H]2COC[C@@H]2O)CC1` gave an IC50 of 259 nM.
